Data: article PMC12926044, “Nootropic benzothiazoles promote dendritic spine formation by targeting fascin-1” (The Journal of Biological Chemistry, 2025)
Like-named read-outs stand apart in the source and are kept apart here.

Target: T1, fascin-1 (Homo sapiens, UniProt Q16658)
T1 construct: gene FSCN1; recombinant, E. coli BL21(DE3), pGEX-5X-2 GST fusion, GST cut off with thrombin; monomer
Test: isothermal titration calorimetry
Type: binding

Compound	Kd (read-out: Kd) [µM]	Kd (50 mM Hepes pH 7.5, 150 mM NaCl, 25 °C, proposed site 2)
Cc1ccc2nc(-c3ccc(NCCOCCOCCOCCOCCOCCO)cc3)sc2c1 [BTA-EG6]	~5	
O=C(Nc1nn(Cc2ccc(C(F)(F)F)cc2)c2ccccc12)c1ccco1 [G2]		Kd values of G2 to WT fascin-1 and seven fascin-1 mutant proteins
